According to patent publication US20250325677A1, “STAT6 DEGRADERS” (Gilead Sciences, Inc., priority 2024, published 2025):
Read-outs that look alike come from different tables or passages of the source.

Experiments:
[1] = system: eotaxin-3 release; test: Human whole blood eotaxin-3 assay (IL-4 stimulated); assay type: cell-based
How it was run: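 Human whole blood was preincubated with compound for 120 min at 37 °C, then stimulated with recombinant human IL-4 (E. coli) at 0.4 nM final for 48 h. Inhibition of eotaxin-3 release gave EC50 values.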

[2] = molecular target: STAT6 (Homo sapiens (Human), UniProt P42226); test: STAT6 degrader assay (HiBiT, HeLa LgBiT clone 4.14); assay type: cell-based
STAT6, sequence (P42226 whole entry): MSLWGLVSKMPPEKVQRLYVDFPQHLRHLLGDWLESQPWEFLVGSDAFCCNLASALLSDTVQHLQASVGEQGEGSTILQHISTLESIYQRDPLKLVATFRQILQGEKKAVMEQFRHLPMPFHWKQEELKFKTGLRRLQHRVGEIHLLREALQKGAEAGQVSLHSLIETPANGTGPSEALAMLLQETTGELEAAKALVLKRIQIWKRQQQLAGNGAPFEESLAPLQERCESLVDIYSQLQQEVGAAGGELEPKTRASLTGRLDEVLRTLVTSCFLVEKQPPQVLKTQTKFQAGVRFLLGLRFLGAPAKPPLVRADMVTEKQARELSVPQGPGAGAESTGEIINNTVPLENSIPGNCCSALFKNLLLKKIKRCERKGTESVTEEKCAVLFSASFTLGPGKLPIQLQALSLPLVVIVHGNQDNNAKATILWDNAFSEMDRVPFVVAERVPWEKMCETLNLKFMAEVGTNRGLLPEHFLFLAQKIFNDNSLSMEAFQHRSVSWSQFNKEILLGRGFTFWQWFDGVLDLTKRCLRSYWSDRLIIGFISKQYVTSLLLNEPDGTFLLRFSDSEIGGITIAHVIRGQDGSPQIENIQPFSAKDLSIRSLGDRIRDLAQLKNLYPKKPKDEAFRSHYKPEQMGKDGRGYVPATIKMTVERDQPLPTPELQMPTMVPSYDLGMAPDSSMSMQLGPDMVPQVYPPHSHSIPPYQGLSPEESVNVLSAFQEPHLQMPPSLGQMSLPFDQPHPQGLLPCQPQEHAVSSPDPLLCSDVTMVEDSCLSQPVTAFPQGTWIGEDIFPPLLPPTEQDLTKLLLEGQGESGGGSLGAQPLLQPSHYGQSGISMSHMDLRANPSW
How it was run: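 HeLa LgBiT clone 4.14 cells with HiBiT knocked into endogenous STAT6 were treated with compound for 4-24 h at 37° C. Luminescence after Nano-GLO substrate (0.5 h) measured remaining STAT6; 50 μM terfenadine wells defined 100% degradation, and DC50 (nM) was derived.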

[3] = human whole blood, IL-4 0.4 nM, 48 hours, geometric mean, given for compounds with >80% Emax, read-out: Eotaxin-3 EC50
[4] = HeLa LgBiT clone 4.14, 4-24 h; geometric mean; given for compounds with >80% Emax; read-out: STAT6 degradation DC50

EC50 [1, 3] [nM] | DC50 [2, 4] [nM] | SMILES | EC50 ([1]; Homo sapiens, 48 h, read-out: Eotaxin-3 EC50 (nM)) [nM] | DC50 ([2]; read-out: STAT6 degradation DC50; HeLa LgBiT clone 4.14, 4-24 h; geometric mean; given for compounds with >80% Emax) [nM]
4.9 | 2.2 | C[C@H]1CN(Cc2ccc3c(c2)n(C)c(=O)n3C2CCC(=O)NC2=O)CCN1CC1CCN(C(=O)c2ccc(C3CCN([C@@H](C)c4cc5c(-c6cnc(N)c(F)c6)ccnc5n4C)CC3)cc2)CC1 (stereo partly drawn) [Example 3e47, 3-(5-(((S)-4-((1-(4-(1-((S)-1-(4-(6-amino-5-fluoropyridin-3-yl)-1-methyl-1H-pyrrolo[2,3-b]pyridin-2-yl)ethyl)piperidin-4-yl)benzoyl)piperidin-4-yl)methyl)-3-methylpiperazin-1-yl)methyl)-3-methyl-2-oxo-2,3-dihydro-1H-benzo[d]imidazol-1-yl)piperidine-2,6-dione] | – | –
– | – | C[C@H]1CN(Cc2ccc3c(c2)n(C)c(=O)n3C2CCC(=O)NC2=O)CCN1CC1CCN(C(=O)c2ccc(C3CCN([C@@H](C)c4cc5c(-c6ccc(N)nn6)ccnc5n4C)CC3)cc2)CC1 (stereo partly drawn) [Example 3e52, 3-(5-(((S)-4-((1-(4-(1-((S)-1-(4-(6-aminopyridazin-3-yl)-1-methyl-1H-pyrrolo[2,3-b]pyridin-2-yl)ethyl)piperidin-4-yl)benzoyl)piperidin-4-yl)methyl)-3-methylpiperazin-1-yl)methyl)-3-methyl-2-oxo-2,3-dihydro-1H-benzo[d]imidazol-1-yl)piperidine-2,6-dione] | 1.5 | 0.9
7.5 | 1.9 | C[C@@H](c1cc2c(-c3ccc(N)nc3)ccnc2n1C)N1CCC(c2ccc(C(=O)N3CCC(CN4CCN(Cc5ccc6c(c5)n(CC5CC5)c(=O)n6C5CCC(=O)NC5=O)CC4)CC3)cc2)CC1 (stereo partly drawn) [Example 3e53, 3-(5-((4-((1-(4-(1-((S)-1-(4-(6-aminopyridin-3-yl)-1-methyl-1H-pyrrolo[2,3-b]pyridin-2-yl)ethyl)piperidin-4-yl)benzoyl)piperidin-4-yl)methyl)piperazin-1-yl)methyl)-3-(cyclopropylmethyl)-2-oxo-2,3-dihydro-1H-benzo[d]imidazol-1-yl)piperidine-2,6-dione] | – | –
3.6 | 0.7 | C[C@H]1CN(Cc2ccc3c(c2)n(CC2CC2)c(=O)n3C2CCC(=O)NC2=O)CCN1CC1CCN(C(=O)c2ccc(C3CCN([C@@H](C)c4cc5c(-c6ccc(N)nc6)ccnc5n4C)CC3)cc2)CC1 (stereo partly drawn) [Example 3e54, 3-(5-(((S)-4-((1-(4-(1-((S)-1-(4-(6-aminopyridin-3-yl)-1-methyl-1H-pyrrolo[2,3-b]pyridin-2-yl)ethyl)piperidin-4-yl)benzoyl)piperidin-4-yl)methyl)-3-methylpiperazin-1-yl)methyl)-3-(cyclo-propylmethyl)-2-oxo-2,3-dihydro-1H-benzo[d]imidazol-1-yl)piperidine-2,6-dione] | – | –
1.5 | 0.5 | C[C@H]1CN(Cc2ccc3c(c2)n(C)c(=O)n3C2CCC(=O)NC2=O)CCN1CC1CCN(C(=O)c2ccc(C3CCN([C@@H](C)c4cc5c(-c6ccc(N)nc6C#N)ccnc5n4C)CC3)cc2)CC1 (stereo partly drawn) [Example 3e55, 6-amino-3-(2-((1S)-1-(4-(4-(4-(((2S)-4-((1-(2,6-dioxopiperidin-3-yl)-3-methyl-2-oxo-2,3-dihydro-1H-benzo[d]imidazol-5-yl)methyl)-2-methylpiperazin-1-yl)methyl)piperidine-1-carbonyl)phenyl)-piperidin-1-yl)ethyl)-1-methyl-1H-pyrrolo[2,3-b]pyridin-4-yl)picolinonitrile] | – | –
2.6 | 0.4 | C[C@H]1CN(Cc2ccc3c(c2)n(C)c(=O)n3C2CCC(=O)NC2=O)CCN1CC1CCN(C(=O)c2ccc(C3CCN([C@@H](C)c4cc5c(-c6ccc(N)cn6)ccnc5n4C)CC3)cc2)CC1 (stereo partly drawn) [Example 3e56, 3-(5-(((S)-4-((1-(4-(1-((S)-1-(4-(5-aminopyridin-2-yl)-1-methyl-1H-pyrrolo[2,3-b]pyridin-2-yl)ethyl)piperidin-4-yl)benzoyl)piperidin-4-yl)methyl)-3-methylpiperazin-1-yl)methyl)-3-methyl-2-oxo-2,3-dihydro-1H-benzo[d]imidazol-1-yl)piperidine-2,6-dione] | – | –
1.9 | 0.8 | C[C@H]1CN(Cc2cc3c(cc2F)n(C2CCC(=O)NC2=O)c(=O)n3C2CC2)CCN1CC1CCN(C(=O)c2ccc(C3CCN([C@@H](C)c4cc5c(-c6ccc(N)nc6)ccnc5n4C)CC3)cc2)CC1 (stereo partly drawn) [Example 3e58, 3-(5-(((S)-4-((1-(4-(1-((S)-1-(4-(6-aminopyridin-3-yl)-1-methyl-1H-pyrrolo[2,3-b]pyridin-2-yl)ethyl)piperidin-4-yl)benzoyl)piperidin-4-yl)methyl)-3-methylpiperazin-1-yl)methyl)-3-cyclopropyl-6-fluoro-2-oxo-2,3-dihydro-1H-benzo[d]imidazol-1-yl)piperidine-2,6-dione] | – | –
43.7 | 12.7 | C[C@@H](c1cc2c(-c3ccc(N)nc3)ccnc2n1C)N1CCC(c2ccc(C(=O)N3CCC(CN4CCN(Cc5cc6c(cc5F)N(C5CCC(=O)NC5=O)C(=O)C65CC5)CC4)CC3)cc2)CC1 (stereo partly drawn) [Example 3h9, 3-(5′-((4-((1-(4-(1-((S)-1-(4-(6-aminopyridin-3-yl)-1-methyl-1H-pyrrolo[2,3-b]pyridin-2-yl)ethyl)piperidin-4-yl)benzoyl)piperidin-4-yl)methyl)piperazin-1-yl)methyl)-6′-fluoro-2′-oxospiro[cyclopropane-1,3′-indolin]-1′-yl)piperidine-2,6-dione] | – | –
2.8 | 0.3 | CNc1ccc(-c2ccnc3c2cc([C@H](C)N2CC=C(c4c(C)cc(C(=O)N(C)c5ccc(C6CCN(Cc7ccc8c(c7)C7(CC7)C(=O)N8C7CCC(=O)NC7=O)CC6)cc5)cc4F)CC2)n3C)cn1 (stereo partly drawn) [Example 3h11, N-(4-(1-((1′-(2,6-dioxopiperidin-3-yl)-2′-oxospiro[cyclopropane-1,3′-indolin]-5′-yl)methyl)piperidin-4-yl)phenyl)-3-fluoro-N,5-dimethyl-4-(1-((S)-1-(1-methyl-4-(6-(methylamino)pyridin-3-yl)-1H-pyrrolo[2,3-b]pyridin-2-yl)ethyl)-1,2,3,6-tetrahydropyridin-4-yl)benzamide] | – | –
23.2 | 48.7 | C[C@@H](c1cc2c(-c3ccc(N)nc3)ccnc2n1C)N1CCC(c2ccc(C(=O)N3CCC(CC4CCN(c5ccc6c(c5)C5(CC5)C(=O)N6C5CCC(=O)NC5=O)CC4)CC3)cc2)CC1 (stereo partly drawn) [Example 3h13, 3-(5′-(4-((1-(4-(1-((S)-1-(4-(6-aminopyridin-3-yl)-1-methyl-1H-pyrrolo[2,3-b]pyridin-2-yl)ethyl)piperidin-4-yl)benzoyl)piperidin-4-yl)methyl)piperidin-1-yl)-2′-oxospiro[cyclopropane-1,3′-indolin]-1′-yl)piperidine-2,6-dione] | – | –
12.3 | 6.3 | CNc1ccc(-c2ccnc3c2cc([C@H](C)N2CC=C(c4c(C)cc(C(=O)N5CCC(CN6CCN(Cc7ccc8c(c7)C(C)(C)C(=O)N8C7CCC(=O)NC7=O)C[C@@H]6C)CC5)cc4F)CC2)n3C)cn1 (stereo partly drawn) [Example 3h18, 3-(5-(((S)-4-((1-(3-fluoro-5-methyl-4-(1-((S)-1-(1-methyl-4-(6-(methylamino)pyridin-3-yl)-1H-pyrrolo[2,3-b]pyridin-2-yl)ethyl)-1,2,3,6-tetrahydropyridin-4-yl)benzoyl)piperidin-4-yl)methyl)-3-methylpiperazin-1-yl)methyl)-3,3-dimethyl-2-oxoindolin-1-yl)piperidine-2,6-dione] | – | –
